Measurements as given in patent US4454330A, “Two-functional-group-containing terpenoids, processes for the preparation of the same, and anti-ulcer agents containing the same” (Eisai Co., Ltd., priority 1980, dated 1984).

The molecules below were run on cold-restaint stress ulcer (assay: Effect on cold-restraint stress ulcer (Levine' method, rats)). Settings: SD rats, female, about 170 g, 8-10 weeks age.
Type: in vivo, rats (SD family
Experimental: (1) Effect on Cold-Restaint Stress Ulcer
The inhibition effect of the test compound on the cold-restaint stress ulcer was determined according to the Levine' method using rats (SD family, female, weight about 170 g, 8-10 weeks age). The test compounds are set forth below.

First: CC(=CCO)CCC=C(C)CCC=C(C)C(=O)O [Compound A, 12-Hydroxy-2,6,10-trimethyl-2,6,10-dodecatrienoic acid]
Second: CC(=CCO)CCC=C(C)CCC=C(C)CCC=C(C)C(=O)O [Compound C, 16-Hydroxy-2,6,10,14-tetramethyl-2,6,10,14-hexadecatetraenoic acid]
The “Inhibition Ratio (%) on the occurrence of the cold restrictive stress ulcer” value of the first is lower: 74.6% for the first, 79.2% for the second.

In the case of `CC(=CCO)CCC=C(C)CCC=C(C)CCC=C(C)CCC=C(C)C(=O)O` [Compound D, 20-Hydroxy-2,6,10,14,18-pentamethyl-2,6,10,14,18-eicosapentaenoic acid], the “Inhibition Ratio (%) on the occurrence of the cold restrictive stress ulcer” value is reported as 49.5%.
